In patent US20250243174A1, “ANTITUMORAL COMPOUNDS” (PHARMA MAR, S.A., priority 2021, published 2025):
Where two headings read alike, the source gives them in different places.

Experiments:
MDA-MB-231 = assay: SRB colorimetric cytotoxicity assay, MDA-MB-231; assay type: cell-based; settings: Homo sapiens, read-out: GI50 (M) MDA-MB-231
Text: The aim of this assay is to evaluate the in vitro cytostatic (ability to delay or arrest tumor cell growth) or cytotoxic (ability to kill tumor cells) activity of the samples being tested.
A colorimetric assay, using sulforhodamine B (SRB) reaction has been adapted to provide a quantitative measurement of cell growth and viability (using the technique developed by Skehan et al., J. Natl. Cancer Inst. 1990 and following the protocol detailed in V. Vichai and K. Kirtikara (2006) Nature Protoc. 1, 1112-1116.)
This form of assay employs 96-well cell culture microplates. All the cell lines used in this study were obtained from the American Type Culture Collection (ATCC), unless otherwise indicated, and derive from different types of human cancer.
Cells were maintained in Dulbecco's Modified Eagle Medium (DMEM) (for A549, HT-29 and MDA-MB-231) or RPMI (for PSN-1) supplemented with 10% Fetal Bovine Serum (FBS), 2 mM L-glutamine, 100 U/mL penicillin and 100 U/mL streptomycin at 37° C., 5% CO2 and 98% humidity. For the experiments, cells were harvested from subconfluent cultures using trypsinization and resuspended in fresh medium before counting and plating.
Cells were seeded in 96 well microtiter plates, at 5×10^3 cells per well in aliquots of 150 μL, and allowed to attach to the plate surface for 18 hours (overnight) in drug free medium. After that, one control (untreated) plate of each cell line was fixed (as described below) and used for time zero reference value. Culture plates were then treated with test compounds (50 μL aliquots of 4× concentrated compound stock solutions made in complete culture medium) using ten serial dilutions (concentrations ranging from […]) and triplicate cultures (final concentration of DMSO being 1%). After 72 hours treatment, the antitumor effect was measured by using the SRB methodology: Briefly, cells were washed twice with PBS, fixed for 15 min in 1% glutaraldehyde solution at room temperature, rinsed twice in PBS, and stained in 0.4% SRB solution for 30 min at room temperature. Cells were then rinsed several times with 1% acetic acid solution and air-dried at room temperature. SRB was then extracted in 10 mM trizma base solution and the absorbance measured in an automated spectrophotometric plate reader at 490 nm. Effects on cell growth and survival were estimated by applying the NCI algorithm (Boyd M R and Paull K D. Drug Dev. Res. 1995, 34, 91-104).
Using the mean±SD of triplicates, a dose-response curve was automatically generated using nonlinear regression analysis to a 4-parameter logistic curve. Three reference parameters were calculated (NCI algorithm) by automatic interpolation: GI50=compound concentration that produces […] cell growth inhibition, as compared to control cultures.

H460 xenografts = assay: Example 5, NSCLC xenograft model H460; assay type: in vivo; settings: for tumor reduction compared to placebo: higher doses 16, 2 or 1 mg/kg; for TV, median (IQR) / Median survival time: iv Q7dx3; for TV, median (IQR): high dose: PM060184 16, Comp. 2 2, Comp. 3 1 mg/kg; for antitumor activity compared to PM060184 (16 mg/kg) / mean time frame during which the animals had tumor remission / mean body weight reduction: compound 2 2.0 mg/kg, compound 3 1.0 mg/kg; for animals with complete tumor remission: highest dose: compound 2 2.0, compound 3 1.0 mg/kg; for mean body weight reduction: recorded on Day 9
Protocol: Female athymic nu/nu mice (Harlan Laboratories Models, S.L. Barcelona, Spain or Envigo, Spain) were utilized for all experiments. Animal were housed in individually ventilated cages Sealsafe® Plus, Techniplast S.P.A.), up to ten per cage on a 12-hour light-dark cycle at 21-23° C. and 40-60% humidity. Mice were allowed free access to irradiated standard rodent diet (Tecklad 2914C) and sterilized water. Animals were acclimated for at least 5 days prior to tumor implantation with a tumor cell suspension.
H460 cells were maintained in vitro at 37° C. with 5% CO2 in Dulbecco's Modified Eagle's Medium (Sigma-Aldrich, Co). Culture cells were passaged every 3 to 5 days upon reaching confluence. Each animal was subcutaneously implanted (on the right flank using 26G needle and a 1 cc syringe) at 4-6 weeks of age with 5×10^6 H460 cells suspended in 0.05 mL of a solution consisting of 50% Matrigel® (Corning Incorporated Life Sciences) and 50% medium without serum or antibiotics.
All treatments were intravenously administered on a weekly basis at their MTD, ¼ MTD and 1/16 MTD (high, medium and low dose).
Briefly: • 4 to 6 week-old athymic nu/nu female mice were subcutaneously implanted with tumor cells growing in culture. • When tumors reached a certain volume, tumor bearing animals (N=8-10/group) were randomly allocated into treatment groups. • Tumor dimensions and body weights were recorded 2-3 times per week starting from the first day of treatment (Day 0). Treatments producing >20% lethality and/or 20% net body weight loss were considered toxic. Tumor volume was calculated using the equation (a·b^2)/2, where a and b were the longest and shortest diameters, respectively. Animals were euthanized when their tumors reached ca. 2,000 mm^3 and/or severe necrosis was seen. • Median was calculated for tumor volume on each measurement day. • Antitumor effect was assessed comparing tumor volume data from groups following the 1st, 2nd, 3rd study weeks, or more depending on the case, using a two-tailed Mann-Whitney U test. The data are presented as medians and interquartile range (IQR). • Complete tumor regression (CR) was defined when tumor volume<63 mm^3 for 2 or more consecutive measurements. • Treatment tolerability was assessed by monitoring body weight evolution, clinical signs of systemic toxicity as well as evidences of local damage at the injection site.
PM060184 was provided in the form of freeze-dried vials of lyophilized product. Each vial was reconstituted with water for infusion to a concentration of 2.5 mg/mL.
Compounds 2 and 3 were provided in the powder form and were solubilized with hydroxy-propyl-β-cyclodextrin (HPβCD), reaching a concentration of 1 mg/ml or 0.2 mg/ml, respectively. Placebo was provided in the form of lyophilised cake containing 1.2 g of hydroxy-propyl-β-cyclodextrin (HPβCD) which was reconstituted with water for infusion.
In these experiments, compounds 2, 3 and PM060184, as well as placebo, were intravenously administered once per week for 3 consecutive weeks, on Days 0, 7 and 14, whenever it was possible.
The experiment was carried out as previously explained. When tumors reached ca. 160-170 mm^3, tumor bearing animals (N=10/group) were randomly allocated into the following treatment groups:
Treatments were initiated on Day 0.

[1] = high dose: PM060184 16.0, Comp. 2 2.0, Comp. 3 1.0 mg/kg
[2] = high dose: compound 2 2.0, compound 3 1.0, PM060184 16 mg/kg
[3] = low dose: PM060184 1.0, Comp. 2 0.125, Comp. 3 0.0625 mg/kg
[4] = medium dose: PM060184 4.0, Comp. 2 0.5, Comp. 3 0.25 mg/kg

Row | Compound | GI50 (MDA-MB-231; MDA-MB-231, 72 h) [M] | tumor reduction compared to placebo (H460 xenografts; Day 7) | TV, median (IQR) (H460 xenografts; Day 7) | TV, median (IQR) (H460 xenografts; Day 14) | TV, median (IQR) (H460 xenografts; Day 21) | TV, median (IQR) (H460 xenografts; Day 28) | TV, median (IQR) (H460 xenografts; Day 35) | antitumor activity compared to PM060184 (16 mg/kg) (H460 xenografts) | mean time frame during which the animals had tumor remission (H460 xenografts) [days] | Median survival time (H460 xenografts; [1]) [days] | tumor remissions lasted (H460 xenografts; [2]) | animals with complete tumor remission (H460 xenografts) [%] | Median survival time (H460 xenografts; [3]) [days] | Median survival time (H460 xenografts; [4]) [days] | mean body weight reduction (H460 xenografts) | other results
1 | COC1=CC[C@@H]([C@@H](C)/C=C(C)/C=C\C=C/C(=O)N[C@H](C(=O)N/C=C\C[C@H](C/C=C(\C)F)OC(N)=O)C(C)(C)C)OC1=O [Compound 2] | 4.87e-11 | very strong, statistically significant tumor reduction | 114.7 (97.2-131.6) mm3 | 80.9 (61.1-109.3) mm3 | 53.5 (33.4-59.7) mm3 | 95.0 (73.2-119.1) mm3 | 505.4 (428.9-583.7) mm3 | stronger, statistically significant, antitumor activity | 8.8 | 45.5 | more than 48 days | 100 | 14 | 40 | ca. −13.4% | tumor remissions lasted (H460 xenografts; medium dose: compound 2 0.5 mg/kg): 30.9 days
2 | COC1=CC[C@@H]([C@@H](C)/C=C(C)/C=C\C=C/C(=O)N[C@H](C(=O)N/C=C\C[C@H](CC=C(C)C)OC(N)=O)C(C)(C)C)OC1=O [Compound 3] | 9.05e-11 | very strong, statistically significant tumor reduction | 123.9 (93.4-157.6) mm3 | 80.3 (71.0-83.5) mm3 | 59.3 (38.7-62.5) mm3 | 77.6 (55.3-85.1) mm3 | 374.8 (257.4-438.2) mm3 | stronger, statistically significant, antitumor activity | 7.8 | – | more than 45.1 days | 100 | 14 | – | ca. −18.5% | antitumor activity of compound 3 compared to compound 2 (H460 xenografts; at the MTD's, 1.0 mg/kg or 2.0 mg/kg): statistically significant higher antitumor activity than compound 2; Median survival time (H460 xenografts; high dose: PM060184 16.0, Comp. 2 2.0, Comp. 3 1.0 mg/kg, 1 mg/kg): 45.5 days; Median survival time (H460 xenografts; high dose: PM060184 16.0, Comp. 2 2.0, Comp. 3 1.0 mg/kg, listed as Comp. 3, 1 mg/kg): 48 days; Median survival time (H460 xenografts; medium dose: PM060184 4.0, Comp. 2 0.5, Comp. 3 0.25 mg/kg, 0.25 mg/kg): 40 days; Median survival time (H460 xenografts; medium dose: PM060184 4.0, Comp. 2 0.5, Comp. 3 0.25 mg/kg, listed as Comp. 3, 0.25 mg/kg): 38.5 days
3 | C/C=C\C[C@@H](C/C=C\NC(=O)[C@@H](NC(=O)\C=C/C=C\C(C)=C\[C@H](C)[C@@H]1CC=C(OC)C(=O)O1)C(C)(C)C)OC(N)=O [PM060184, reference compound] | – | very strong, statistically significant tumor reduction | 100.1 (80.6-119.0) mm3 | 97.8 (74.5-149.3) mm3 | 129.4 (83.5-172.3) mm3 | 631.0 (454.0-873.9) mm3 | 1470 (1470-1666) mm3 | – | – | 37 | two | – | 16 | 30 | – | GI50 (MDA-MB-231; MDA-MB-231, 72 hours treatment, SRB): 2.07e-10 M; animals with complete tumor remission (number out of 10) (H460 xenografts; PM060184 16 mg/kg): Four out of 10; body weight decrease (H460 xenografts; recorded on Day 12, PM060184 16 mg/kg): ca. −6.8%
